Test system: HaCaT cells
Assay: Normalized expression of target genes in HaCaT cells stimulated with TNFα and IFNγ in presence/absence of JAK inhibitors (QuantiGene Plex)
Type: cell-based, human
Experimental: Transformed human keratinocyte (HaCaT) cells were purchased from AddexBio (Catalog #T0020001) and cultured as outlined in Example 5. […] After 48 hours, cell culture media was removed from 24 well plates and replaced with 250 uL of media containing serial diluted drug, then incubated for 15 minutes at 37° C./5% CO2. After drug incubation, 250 uL of combinatory stimulation containing Recombinant Human Interferon gamma (R&D Systems, Catalog #285-IF-100) and Recombinant Human Tumor Necrosis Factor alpha (R&D Systems, Catalog #210-TA-020) was added to plates. The final concentration of Recombinant Human Interferon gamma and Recombinant Human Tumor Necrosis Factor alpha was 25 ng/mL of each cytokine. Cytokine stimulation added to wells containing drug brought the final concentrations for each drug treatment to 25 nM, 50 nM, 100 nM, and 200 nM. Treated plates were mixed by gentle agitation for 30 seconds then incubated for 24 hours at 37° C./5% CO2. At the end of the 24 hour incubation media was immediately removed from each plate.
RNA was isolated from HaCaT cells using the QuantiGene Plex Assay reagents and protocols (Affymetrix, Catalog #QGP-232-M18042302) according to the manufacturer's guidelines. Cells were washed with 1×DPBS then lysed by incubation with provided QuantiGene lysis buffer for 30 minutes at 50-55° C. Cell lysates were incubated for 18-24 hours at 55° C. with capture beads and probe set designed to specifically hybridize to mRNA from targets of interest. Genes included housekeeping genes (e.g., HPRT1 and GAPDH) used for the normalization of the results. After the 18-24 hour incubation signal was amplified utilizing branched DNA methodologies, according to the manufacturer's procedures (Affymetrix, Catalog #QGP-232-M18042302). After hybridization and wash steps assay plate was read on the Luminex 200 and data were expressed as Net Median Fluorescence Intensity. Data was then normalized to the Net Median Fluorescence Intensity of the housekeeping gene HPRT1 (Table 14).

[1] = TNFα+IFNγ 25 ng/mL, Drug Conc 100 nM
[2] = TNFα+IFNγ 25 ng/mL, Drug Conc 200 nM
[3] = no stimulation, Drug Conc 200 nM

N#CCC1(n2cc(-c3ncnc4[nH]ccc34)cn2)CN(C2CCN(C(=O)c3ccnc(C(F)(F)F)c3F)CC2)C1 [Cpd B, {1-{1-[3-fluoro-2-(trifluoromethyl)isonicotinoyl]piperidin-4-yl}-3[4-(7H-pyrrolo[2,3-d]pyrimidin-4-yl)-1H-pyrazol-1-yl]azetidin-3-yl}acetonitrile]
JAK3 normalized expression MFI [1]: 0.92 ± 0.13 | LOR normalized expression MFI [1]: 31.4 ± 10.44 | S100A7 normalized expression MFI [1]: 3.83 ± 1.02 | S100A12 normalized expression MFI [1]: 1 ± 0.17 | SERPINB3 normalized expression MFI [1]: 2.2 ± 0.35 | SERPINB4 normalized expression MFI [1]: 2.87 ± 0.48 | STAT1 normalized expression MFI [1]: 2783.68 ± 179.19 | STAT3 normalized expression MFI [1]: 1373.34 ± 55.51 | STAT4 normalized expression MFI [1]: 6.21 ± 0.48 | STAT5A normalized expression MFI [1]: 20.87 ± 2.1 | STAT5B normalized expression MFI [1]: 40.75 ± 2.41 | STAT6 normalized expression MFI [1]: 987.64 ± 15.75 | TNF normalized expression MFI [1]: 29.5 ± 2.82 | VEGFA normalized expression MFI [1]: 524.82 ± 13.65 | AREG normalized expression MFI [2]: 730.41 ± 24.58 | CCL17 normalized expression MFI [2]: 3.13 ± 0.48 | CCL18 normalized expression MFI [2]: 1.68 ± 0.32 | FLG normalized expression MFI [2]: 87.37 ± 10.99 | IL6 normalized expression MFI [2]: 93.03 ± 3.25 | IL8 normalized expression MFI [2]: 377.69 ± 20.45 | IL17A normalized expression MFI [2]: 0.91 ± 0.17 | IL22 normalized expression MFI [2]: 1.01 ± 0.19 | IL23A normalized expression MFI [2]: 59.53 ± 3.83 | IL31 normalized expression MFI [2]: 1.14 ± 0.32 | ILIA normalized expression MFI [2]: 1126.94 ± 26.22 | IYK2 normalized expression MFI [2]: 277.52 ± 8.67 | JAK1 normalized expression MFI [2]: 195.97 ± 10.45 | JAK2 normalized expression MFI [2]: 89.16 ± 3.43 | JAK3 normalized expression MFI [2]: 0.79 ± 0.15 | LOR normalized expression MFI [2]: 38.46 ± 14.1 | S100A7 normalized expression MFI [2]: 5.73 ± 1.59 | S100A12 normalized expression MFI [2]: 1.14 ± 0.16 | SERPINB3 normalized expression MFI [2]: 2.21 ± 0.44 | SERPINB4 normalized expression MFI [2]: 3.19 ± 0.7 | STAT1 normalized expression MFI [2]: 2850.04 ± 177.51 | STAT3 normalized expression MFI [2]: 1400.77 ± 58.44 | STAT4 normalized expression MFI [2]: 6.27 ± 0.56 | STAT5A normalized expression MFI [2]: 19.2 ± 1.94 | STAT5B normalized expression MFI [2]: 41 ± 3.46 | STAT6 normalized expression MFI [2]: 985.17 ± 29.31 | TNF normalized expression MFI [2]: 28.31 ± 2.97 | VEGFA normalized expression MFI [2]: 516.11 ± 14.7 | AREG normalized expression MFI [3]: 260.61 ± 14.67 | CCL17 normalized expression MFI [3]: 1.56 ± 0.38 | CCL18 normalized expression MFI [3]: 1.49 ± 0.37 | FLG normalized expression MFI [3]: 256.93 ± 36.45 | IL6 normalized expression MFI [3]: 4.7 ± 0.32 | IL8 normalized expression MFI [3]: 61.71 ± 4.86 | IL17A normalized expression MFI [3]: 0.46 ± 0.1 | IL22 normalized expression MFI [3]: 0.61 ± 0.13 | IL23A normalized expression MFI [3]: 11.41 ± 1.43 | IL31 normalized expression MFI [3]: 0.72 ± 0.18 | ILIA normalized expression MFI [3]: 92.67 ± 5.54 | IYK2 normalized expression MFI [3]: 217.28 ± 14.28 | JAK1 normalized expression MFI [3]: 177.97 ± 14.91 | JAK2 normalized expression MFI [3]: 25.21 ± 1.12 | JAK3 normalized expression MFI [3]: 0.68 ± 0.17 | LOR normalized expression MFI [3]: 23.78 ± 7.16 | S100A7 normalized expression MFI [3]: 4.94 ± 1.59 | S100A12 normalized expression MFI [3]: 0.8 ± 0.13 | SERPINB3 normalized expression MFI [3]: 2.25 ± 0.49 | SERPINB4 normalized expression MFI [3]: 3.39 ± 0.89 | STAT1 normalized expression MFI [3]: 529.16 ± 21.86 | STAT3 normalized expression MFI [3]: 732.19 ± 23.03 | STAT4 normalized expression MFI [3]: 4.28 ± 0.61 | STAT5A normalized expression MFI [3]: 1.75 ± 0.44 | STAT5B normalized expression MFI [3]: 58.85 ± 6.21 | STAT6 normalized expression MFI [3]: 740.11 ± 34.98 | TNF normalized expression MFI [3]: 2.58 ± 0.57 | VEGFA normalized expression MFI [3]: 211.13 ± 12.18

Reference: patent US12498382B2, “Biomarkers for vitiligo” (INCYTE CORPORATION, priority 2019, dated 2025)
